Experimental data: patent US9233961B2, “Compounds and compositions for the treatment of parasitic diseases” (Novartis AG, priority 2013, dated 2016)
Where two headings read alike, the source gives them in different places.

Experiments:
[1] = system: Leishmania donovani axenic amastigote parasites; assay: Leishmania donovani axenic amastigote proliferation assay; type: cell-based; conditions: read-out: L. donovani amastigotes EC50
How it was run: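 L. donovani axenic amastigotes (9600/well) in RPMI 1640 with 20% heat-inactivated FBS, folic acid, adenosine, glucose and 25 mM MES, pH 5.5, were incubated with compounds for 2 days at 37 °C, 5% CO2. Viability read by CellTiter-Glo luminescence; EC50 calculated.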

[2] = system: L. donovani HU3 strain in mouse peritoneal macrophages; assay: Assay for proliferation of Leishmania parasites in mouse peritoneal macrophages; type: cell-based, Leishmania donovani
How it was run: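 BALB/c peritoneal macrophages infected 24 h with L. donovani HU3 amastigotes taken from spleens of mice infected 9–11 weeks, then treated with compound for 5 days at 37° C, 5% CO2. Parasite nuclei counted by SYBR Green imaging after fixation; EC50 from percentage inhibition.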

[3] = system: Trypanosoma brucei Lister 427 strain bloodstream form; assay: Assay for proliferation of kinetoplastid parasite Trypanosoma brucei; type: cell-based
How it was run: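 Bloodstream-form T. brucei Lister 427 in HMI-9 medium was exposed to compound (DMSO vehicle) for 48 hours at 37° C, 5% CO2. Parasite growth was read as ATP by CellTiter-Glo luminescence, with EC50 calculated from percent inhibition.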

[4] = system: Trypanosoma cruzi amastigotes (Tulahuen strain) cultured in 3T3 fibroblast cells; assay: Assay for proliferation of kinetoplastid parasite Trypanosoma cruzi; type: cell-based; conditions: 144 h
Description: Assay for Proliferation of Kinetoplastid Parasite Trypanosoma cruzi.
Compounds of the invention can be assayed to measure their capacity to inhibit proliferation of kinetoplastid parasite Trypanosoma cruzi. The screening procedure is for identifying compounds with inhibitor activity against Trypanosoma cruzi amastigotes cultured in 3T3 fibroblast cells. The assay is done using the mammalian stage (amastigotes) of T. cruzi that replicates in the intracellular space of host cells. The host cells are initially infected with the culture-derived trypomastigotes that rapidly invade and then divide as amastigotes. The protocol uses the Tulahuen strain of T. cruzi that has been engineered to express the E. coli beta-galactosidase gene (Lac-Z) (Antimicr. Agents Chemoth. 40:2592, 1996). This allows for a colorimetric readout by using the substrate CPRG and an absorbance plate reader.
3T3 fibroblast cells are re-suspended in RPMI-1640 medium without phenol red medium supplemented with 10% FBS (heat inactivated), 100 μg/ml penicillin, and 100 μg/ml streptomycin. Forty μL of suspension (1,000 cells) is dispensed into 384-well plates and incubated overnight at 37° C. temperature and in atmosphere containing 5% CO2. The following day, 100 nL of compounds of the invention in DMSO are added to plate wells containing 3T3 cells. At the same time control compounds (benznidazole and nifurtimox) and DMSO are added to plates to serve as the positive and negative controls, respectively. After that, 10 μL of media containing 10,000 T. cruzi trypomastigotes are added to each plate well and plates are placed back into incubators. After 6 day incubation, 10 μL of reagent solution (0.6 mM CPRG, 0.6% NP-40 in PBS) is added to plates and incubated at room temperature for 2 hours. Absorbance is then measured on SpectraMax Gemini […] to determine relative number of T. cruzi cells present in each plate well. The percentage inhibition of 50%, EC50, is calculated for each compound. […] Typically, the EC50 is 10 μM or less.

[5] = Leishmania donovani, Peritoneal macrophage, read-out: L. donavani Macrophage EC50
[6] = TULAHUEN, Fibroblast, read-out: T cruzi EC50
[7] = Lister 427 bloodstream form, 48 hours, read-out: T. brucei EC50
[8] = Tulahuen amastigotes in 3T3 fibroblast cells, 6 day incubation, read-out: T cruzi EC50

Row | SMILES | EC50 [2, 5] | EC50 ([1]; axenic amastigotes in vitro) | EC50 [3, 7] | EC50 [4, 8] | also measured
1 | CCOC(=O)Nc1ccc(Cl)c(-c2nc3ncc(Br)cc3[nH]2)c1 [Example 370, Ethyl N-(3-{6-bromo-1H-imidazo[4,5-b]pyridin-2-yl}-4-chlorophenyl)carbamate] | 7.4 µM |  |  |  | EC50 [1]: 2.53 µM; EC50 ([3]; 48 h, read-out: T. brucei EC50): 0.52 µM; EC50 [4, 6]: 1.2 µM
2 | Cc1cnc2nc(-c3cc(NC(=O)c4cncnc4)ccc3Cl)[nH]c2c1 [Compound 187] | > 42.2 µM | 6.9 µM | 4.2 µM | > 11.5 µM | 
3 | Cc1cnc2nc(-c3cc(NC(=O)c4cccnn4)ccc3Cl)[nH]c2c1 [Compound 186] | > 34.7 µM | > 25 µM | 4.5 µM | > 11.5 µM | 
4 | CNc1ccc(-c2cnc3nc(-c4cc(NC(=O)c5cnccn5)ccc4Cl)[nH]c3c2)cc1 [Compound 348] | 0.92 µM | 0.249 µM | 0.0239 µM | 0.064 µM | 
5 | Cc1cnc2nc(-c3cc(NC(=O)N4CC5CC5C4)ccc3Cl)[nH]c2c1 (stereo not drawn) [Compound 230] | 13.3 µM | 5.4 µM | 1.48 µM | 3.6 µM | 
6 | COCCOC(=O)Nc1ccc(Cl)c(-c2nc3ncc(Br)cc3[nH]2)c1 [Compound 371] | 6.5 µM | 2.35 µM | 2.21 µM | 3.3 µM | 
7 | Cc1cnc2nc(-c3cc(NC(=O)C4CCCCN4)ccc3Cl)[nH]c2c1 (stereo not drawn) [Compound 171] | > 50 µM | > 25 µM | > 7.5 µM | 7.5 µM | 
8 | CCOC(=O)Nc1ccc(Cl)c(-c2nc3ncc(-c4ccc(NC)cc4)cc3[nH]2)c1 [Compound 351] | 3.7 µM | 1.19 µM | 0.206 µM | 0.243 µM | 
9 | Cc1cnc2nc(-c3cc(NC(=O)N(C)C4CCOC4)ccc3Cl)[nH]c2c1 (stereo not drawn) [Compound 232] | > 50 µM | > 25 µM | > 25 µM | > 20 µM | 
10 | Cc1cnc2nc(-c3cc(NC(=O)N(C)c4ccccc4)ccc3Cl)[nH]c2c1 [Compound 241] | > 47.5 µM | 14.2 µM | 9.7 µM | 10.4 µM | 
11 | Cc1cnc2nc(-c3cc(NC(=O)NCCN(C)C)ccc3Cl)[nH]c2c1 [Example 226, 1-(4-Chloro-3-{6-methyl-1H-imidazo[4,5-b]pyridin-2-yl}phenyl)-3-[2-(dimethylamino)ethyl]urea] | > 50 µM |  |  |  | EC50 [1]: > 25 µM; EC50 ([3]; 48 h, read-out: T. brucei EC50): > 22.2 µM; EC50 [4, 6]: > 20 µM
12 | CNc1ccc(-c2cnc3nc(-c4cc(NC(=O)OCCOC)ccc4Cl)[nH]c3c2)cc1 [Example 350, 2-Methoxyethyl N-(4-chloro-3-{6-[4-(methylamino)phenyl]-1H-imidazo[4,5-b]pyridin-2-yl}phenyl)carbamate] | 1.26 µM |  |  |  | EC50 [1]: 0.68 µM; EC50 ([3]; 48 h, read-out: T. brucei EC50): 0.8 µM; EC50 [4, 6]: 0.51 µM
13 | COc1cccc(C(=O)Nc2ccc(Cl)c(-c3nc4ncc(C)cc4[nH]3)c2)c1 [Compound 134] | 13.9 µM | 21.4 µM | 0.89 µM | 2.59 µM | 
14 | O=C(Nc1ccc(Cl)c(-c2nc3ncc(-c4cccnc4)cc3[nH]2)c1)c1ccco1 [Compound 50] | 1.64 µM | 0.134 µM | 0.00262 µM | 0.053 µM | 
15 | CCN(C)C(=O)Nc1ccc(Cl)c(-c2nc3ncc(C)cc3[nH]2)c1 [Compound 242] | 25.5 µM | 4.3 µM | 0.36 µM | 1.38 µM | 
16 | COc1ccc(C(=O)Nc2ccc(Cl)c(-c3nc4ncc(C)cc4[nH]3)c2)c(OC)c1 [Compound 147] | 8.8 µM | > 25 µM | 3.6 µM | 2.41 µM | 

Row | SMILES | EC50 [2, 5] | EC50 ([1]; axenic amastigotes in vitro) | EC50 [3, 7] | EC50 [4, 8] | also measured
17 | Cc1cnc2nc(-c3cc(NC(=O)c4ccc[nH]4)ccc3Cl)[nH]c2c1 [Compound 100] | 6.4 µM | 6.3 µM | 1.42 µM | 2.17 µM | 
18 | Cc1cnc2nc(-c3cc(NC(=O)NCCCCCCN(C)C)ccc3Cl)[nH]c2c1 [Compound 228] | > 50 µM | > 25 µM | > 25 µM | > 20 µM | 
19 | Cc1cnc2nc(-c3cc(NC(=O)OC(C)C)ccc3Cl)[nH]c2c1 [Compound 216] | 2.83 µM | 2.59 µM | 0.46 µM | 0.7 µM | 
20 | O=C(Nc1ccc(Cl)c(-c2nc3ncc(-c4ccccc4)cc3[nH]2)c1)N1CCCC1 [Example 291, N-(4-chloro-3-{6-phenyl-1H-imidazo[4,5-b]pyridin-2-yl}phenyl)pyrrolidine-1-carboxamide] |  | 0.076 µM | 0.0152 µM |  | EC50 ([2]; L. donovani in mouse peritoneal macrophages, 5 days culture, SybrGreen parasite nuclei count, read-out: EC50): ~0.08 µM; EC50 ([2]; Leishmania donovani, Peritoneal macrophage, 120 h, L. donovani in mouse peritoneal macrophages, 5 days culture, SybrGreen parasite nuclei count, read-out: EC50): 0.076 µM; EC50 ([4]; TULAHUEN, Fibroblast): 0.016 µM; EC50 [4, 6]: 0.0161 µM
21 | Cc1cnc2nc(-c3cc(NC(=O)OC4CCCCC4)ccc3Cl)[nH]c2c1 [Compound 222] | > 22.6 µM | > 25 µM | > 25 µM | 6.4 µM | 
22 | Cc1cnc2nc(-c3cc(NC(=O)Cc4cccc(Cl)c4)ccc3Cl)[nH]c2c1 [Compound 85] | 21.3 µM | > 25 µM | 9.3 µM | > 11.5 µM | 
23 | Cc1cnc2nc(-c3cc(NC(=O)Cc4ccncc4)ccc3Cl)[nH]c2c1 [Compound 148] | > 50 µM | > 25 µM | > 24.6 µM | > 20 µM | 
24 | Cc1cnc2nc(-c3cc(NC(=O)c4ccc(N5CCOCC5)cn4)ccc3Cl)[nH]c2c1 [Compound 84] | > 50 µM | 6.7 µM | 2.13 µM | 2.3 µM | 
25 | Cc1cnc2nc(-c3cc(NC(=O)c4ccc(S(C)(=O)=O)s4)ccc3Cl)[nH]c2c1 [Compound 175, N-(4-chloro-3-{6-methyl-1H-imidazo [4,5-b]pyridin-2-yl}phenyl)-5-methanesulfonylthiophene-2-carboxamide] | > 28.9 µM | > 25 µM | > 20.5 µM | 0.067 µM | EC50 ([4]; TULAHUEN, T. cruzi in 3T3 fibroblast cells, 6 day incubation, CPRG absorbance, read-out: EC50): 0.067 µM
26 | Cc1cnc2nc(-c3cc(NC(=O)c4ccccc4Cl)ccc3Cl)[nH]c2c1 [Compound 149] | 9.2 µM | > 25 µM | 10.9 µM | 0.55 µM | 
27 | COC(=O)Nc1ccc(-c2cnc3nc(-c4cc(NC(=O)c5ccco5)ccc4Cl)[nH]c3c2)cc1 [Compound 58, methyl N-(4-{2-[2-chloro-5-(furan-2-amido)phenyl]-1H-imidazo[4,5-b]pyridin-6-yl}phenyl)carbamate] | 0.284 µM | 0.051 µM | 0.0051 µM | 0.0193 µM | EC50 ([3]; T. brucei Lister 427, 48 hours, Cell Titer Glo, read-out: EC50): 0.005 µM
28 | O=C(Nc1ccc(Cl)c(-c2nc3ncc(C4=CCNCC4)cc3[nH]2)c1)c1ccco1 [Compound 70] | 20.8 µM | 6 µM | 0.174 µM | 0.49 µM | 
29 | Cc1cnc2nc(-c3cc(NC(=O)c4nccnc4O)ccc3Cl)[nH]c2c1 [Compound 174] | > 50 µM | > 25 µM | > 25 µM | > 20 µM | 
30 | Cc1cnc2nc(-c3cc(NC(=O)CCC(=O)O)ccc3Cl)[nH]c2c1 [Compound 201] | > 50 µM | > 25 µM | > 10.8 µM | > 20 µM | 
31 | Cc1cnc2nc(-c3cc(NC(=O)c4cccc(N5CCCCC5)c4)ccc3Cl)[nH]c2c1 [Compound 99] | > 50 µM | > 25 µM | 6.3 µM | 5.5 µM | 
32 | Cc1cnc2nc(-c3cc(NC(=O)N4CCC(N(C)C)C4)ccc3Cl)[nH]c2c1 (stereo not drawn) [Compound 233] | > 50 µM | > 25 µM | > 25 µM | > 20 µM | 
